Results: ChEMBL document CHEMBL1201862, “PubChem BioAssay data set” (2004)
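Following 48 hours of exposure in 96-well plates, responses at five concentrations were used to interpolate endpoints linearly. Here, GI50 denotes the concentration required for 50% inhibition of growth.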 The source made the active and inactive calls. Rule as the data show it: active = GI50 up to about 1.1 µM and inactive = higher.

Legend:
Test in all cases: growth of human tumour cells (NCI), 48 h
HCT-116 = tested on: HCT-116
NCI-H23 = tested on: NCI-H23
SN12C = tested on: SN12C
SK-MEL-5 = tested on: SK-MEL-5
SK-MEL-2 = tested on: SK-MEL-2
SK-OV-3 = tested on: SK-OV-3
DU-145 = tested on: DU-145
786-0 = tested on: 786-0
HL-60 = tested on: HL-60
ACHN = tested on: ACHN
UACC-257 = tested on: UACC-257
SNB-19 = tested on: SNB-19
MCF7 = tested on: MCF7
CAKI-1 = tested on: CAKI-1
SR = tested on: SR
OVCAR-4 = tested on: OVCAR-4
SF-539 = tested on: SF-539
HT-29 = tested on: HT-29
T47D = tested on: T47D
NCI/ADR-RES = tested on: NCI/ADR-RES
TK-10 = tested on: TK-10
UACC-62 = tested on: UACC-62
NCI-H460 = tested on: NCI-H460
IGROV-1 = tested on: IGROV-1
HOP-62 = tested on: HOP-62
K562 = tested on: K562
KM12 = tested on: KM12
A549 = tested on: A549
U-251 = tested on: U-251
SNB-75 = tested on: SNB-75
Hs-578T = tested on: Hs-578T
MDA-N = tested on: MDA-N
CCRF-CEM = tested on: CCRF-CEM
SF-295 = tested on: SF-295
MDA-MB-435 = tested on: MDA-MB-435
SW-620 = tested on: SW-620
BT-549 = tested on: BT-549
LOX IMVI = tested on: LOX IMVI
RPMI-8226 = tested on: RPMI-8226
OVCAR-5 = tested on: OVCAR-5
OVCAR-3 = tested on: OVCAR-3
SF-268 = tested on: SF-268
UO-31 = tested on: UO-31
SK-MEL-28 = tested on: SK-MEL-28
PC-3 = tested on: PC-3
RXF 393 = tested on: RXF 393
M14 = tested on: M14
A498 = tested on: A498
MOLT-4 = tested on: MOLT-4
HOP-92 = tested on: HOP-92
OVCAR-8 = tested on: OVCAR-8
COLO 205 = tested on: COLO 205
HCT-15 = tested on: HCT-15
MDA-MB-231 = tested on: MDA-MB-231
NCI-H226 = tested on: NCI-H226
EKVX = tested on: EKVX

## CCN(CC)CCNc1ccc([N+](=O)[O-])c2nc3ccccc3c(N)c12
HCT-116
  GI50: 127 nM (active)
NCI-H23
  GI50: 485 nM (active)
SN12C
  GI50: 441 nM (active)
SK-MEL-5
  GI50: 166 nM (active)
SK-MEL-2
  GI50: 214 nM (active)
SK-OV-3
  GI50: 726 nM (active)
DU-145
  GI50: 2940 nM (inactive)
786-0
  GI50: 361 nM (active)
HL-60
  GI50: 297 nM (active)
ACHN
  GI50: 155 nM (active)
UACC-257
  GI50: 931 nM (active)
SNB-19
  GI50: 615 nM (active)
MCF7
  GI50: 364 nM (active)
CAKI-1
  GI50: 1230 nM (inactive)
SR
  GI50: 243 nM (active)
OVCAR-4
  GI50: 422 nM (active)
SF-539
  GI50: 446 nM (active)
HT-29
  GI50: 359 nM (active)
T47D
  GI50: 662 nM (active)
NCI/ADR-RES
  GI50: 401 nM (active)
TK-10
  GI50: 685 nM (active)
UACC-62
  GI50: 1010 nM (active)
NCI-H460
  GI50: 291 nM (active)
IGROV-1
  GI50: 377 nM (active)
HOP-62
  GI50: 1480 nM (inactive)
K562
  GI50: 316 nM (active)
KM12
  GI50: 293 nM (active)
A549
  GI50: 385 nM (active)
U-251
  GI50: 682 nM (active)
SNB-75
  GI50: 1170 nM (inactive)
Hs-578T
  GI50: 175 nM (active)
MDA-N
  GI50: 504 nM (active)
CCRF-CEM
  GI50: 251 nM (active)
SF-295
  GI50: 498 nM (active)
MDA-MB-435
  GI50: 481 nM (active)
SW-620
  GI50: 208 nM (active)
BT-549
  GI50: 791 nM (active)
LOX IMVI
  GI50: 333 nM (active)
RPMI-8226
  GI50: 311 nM (active)
OVCAR-5
  GI50: 621 nM (active)
OVCAR-3
  GI50: 701 nM (active)
SF-268
  GI50: 482 nM (active)
UO-31
  GI50: 597 nM (active)
SK-MEL-28
  GI50: 998 nM (active)
PC-3
  GI50: 372 nM (active)
RXF 393
  GI50: 254 nM (active)
M14
  GI50: 456 nM (active)
A498
  GI50: 1220 nM (inactive)
MOLT-4
  GI50: 223 nM (active)
HOP-92
  GI50: 755 nM (active)
OVCAR-8
  GI50: 361 nM (active)
COLO 205
  GI50: 162 nM (active)
HCT-15
  GI50: 410 nM
MDA-MB-231
  GI50: 410 nM (active)
NCI-H226
  GI50: 1350 nM (inactive)
EKVX
  GI50: 428 nM (active)
